By inhibition is commonly meant the drop in the measured response relative to a control, in per cent. Read a low inhibition as a weak effect.

The values that follow come from US20260297081A1, “COMPOUNDS AND METHODS OF TREATING CANCERS” (Cullgen Inc., priority 2023, published 2026).

This test addresses CDK4 (Homo sapiens, UniProt P11802+Q16531). In words: CDK4 percentage degradation in Calu-1 cells (Table 6). The test is classed as cell-based. Also noted: Cells that express cyclin D1-3 and CDK4/6 proteins were treated with heterobifunctional compounds; endogenous in cells; host or cells: Calu-1. To be noted: 16 hours; for inhibition at 0.04 µM: 40 nM; for inhibition at 0.2 µM: 200 nM. The procedure, abridged: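 Percentage degradation of Cyclin D1 and CDK4 derived from densitometry of ECL Western blots on lysates of Calu-1 cells. Treatment was 16 h with compound at either 40 nM or 200 nM.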

Sequence of CDK4 (P11802 2-303 limits assumed): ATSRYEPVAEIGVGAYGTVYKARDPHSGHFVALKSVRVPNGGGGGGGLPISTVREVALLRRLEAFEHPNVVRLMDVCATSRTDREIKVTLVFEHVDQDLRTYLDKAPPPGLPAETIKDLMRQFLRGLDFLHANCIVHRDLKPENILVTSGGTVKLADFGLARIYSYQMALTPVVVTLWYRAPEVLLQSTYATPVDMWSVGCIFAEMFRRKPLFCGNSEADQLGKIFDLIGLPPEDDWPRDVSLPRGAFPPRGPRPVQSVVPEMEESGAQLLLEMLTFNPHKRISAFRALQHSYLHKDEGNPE
Sequence of CDK4 (P24385 whole entry partner): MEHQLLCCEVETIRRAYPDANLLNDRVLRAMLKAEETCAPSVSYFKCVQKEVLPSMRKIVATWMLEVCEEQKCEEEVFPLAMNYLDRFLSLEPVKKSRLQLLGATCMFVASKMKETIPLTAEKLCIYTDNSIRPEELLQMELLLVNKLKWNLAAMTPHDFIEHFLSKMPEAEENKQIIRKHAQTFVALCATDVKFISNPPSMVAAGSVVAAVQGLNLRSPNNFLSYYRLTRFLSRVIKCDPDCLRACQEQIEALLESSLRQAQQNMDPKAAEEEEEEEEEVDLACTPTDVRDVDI
Sequence of CDK4 (Q16531 2-1140 limits assumed): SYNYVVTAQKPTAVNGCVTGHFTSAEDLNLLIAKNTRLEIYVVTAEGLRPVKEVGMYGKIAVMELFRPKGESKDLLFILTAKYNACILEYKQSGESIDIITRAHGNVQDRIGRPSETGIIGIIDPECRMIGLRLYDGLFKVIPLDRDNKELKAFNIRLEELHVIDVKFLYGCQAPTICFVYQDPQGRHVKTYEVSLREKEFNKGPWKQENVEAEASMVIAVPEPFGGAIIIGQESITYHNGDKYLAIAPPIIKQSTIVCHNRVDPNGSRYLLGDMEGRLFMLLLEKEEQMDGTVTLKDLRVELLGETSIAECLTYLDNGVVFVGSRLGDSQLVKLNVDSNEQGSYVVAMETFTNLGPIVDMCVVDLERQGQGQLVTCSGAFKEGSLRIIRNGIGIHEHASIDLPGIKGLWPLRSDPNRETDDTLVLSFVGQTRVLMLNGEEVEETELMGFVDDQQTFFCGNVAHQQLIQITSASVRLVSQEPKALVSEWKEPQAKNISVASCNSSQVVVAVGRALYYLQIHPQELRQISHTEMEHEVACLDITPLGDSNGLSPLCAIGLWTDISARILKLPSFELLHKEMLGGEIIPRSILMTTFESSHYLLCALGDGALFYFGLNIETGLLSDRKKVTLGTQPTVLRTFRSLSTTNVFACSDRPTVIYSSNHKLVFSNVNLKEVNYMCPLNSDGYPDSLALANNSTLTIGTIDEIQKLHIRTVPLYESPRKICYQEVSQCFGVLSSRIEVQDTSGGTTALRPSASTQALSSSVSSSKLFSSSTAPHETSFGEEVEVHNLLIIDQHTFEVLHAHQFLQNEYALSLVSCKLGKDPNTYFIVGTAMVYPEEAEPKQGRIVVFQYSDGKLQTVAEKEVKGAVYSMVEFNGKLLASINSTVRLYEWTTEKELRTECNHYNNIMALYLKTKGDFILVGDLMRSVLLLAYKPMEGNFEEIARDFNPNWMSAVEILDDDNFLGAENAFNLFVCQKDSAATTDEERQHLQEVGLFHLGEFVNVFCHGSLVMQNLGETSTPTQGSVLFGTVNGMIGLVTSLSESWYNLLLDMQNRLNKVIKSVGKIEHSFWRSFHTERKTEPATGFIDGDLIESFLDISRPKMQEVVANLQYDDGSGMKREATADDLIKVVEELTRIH

Turning to `CC(=O)c1c(C)c2cnc(Nc3ccc(N4CCN(CC(=O)NC5CC6(C5)CC(Nc5nc(C)ccc5C(=O)Nc5cc(C)on5)C6)CC4)cn3)nc2n(C2CCCC2)c1=O` (stereo not drawn) [CPD-192, ((6-(2-(4-(6-((6-acetyl-8-cyclopentyl-5-methyl-7-oxo-7,8-dihydropyrido[2,3-d]pyrimidin-2-yl)amino)pyridin-3-yl)piperazin-1-yl)acetamido)spiro[3.3]heptan-2-yl)amino)-6-methyl-N-(5-methylisoxazol-3-yl)nicotinamide], the inhibition at 0.04 µM was below 30% and the inhibition at 0.2 µM is below 30%.
In turn, `CNc1ccc(C(=O)Nc2ccc(N(C)C)nn2)c(NC[C@H]2CC[C@@H](NC(=O)CN3CCN(c4ccc(Nc5ncc6c(C)c(C(C)=O)c(=O)n(C7CCCC7)c6n5)nc4)CC3)CC2)n1` [CPD-193, 2-(((cis-4-(2-(4-(6-((6-acetyl-8-cyclopentyl-5-methyl-7-oxo-7,8-dihydropyrido[2,3-d]pyrimidin-2-yl)amino)pyridin-3-yl)piperazin-1-yl)acetamido)cyclohexyl)methyl)amino)-N-(6-(dimethylamino)pyridazin-3-yl)-6-(methylamino)nicotinamide] registered an inhibition at 0.04 µM of 50 to 80% and an inhibition at 0.2 µM of 50 to 80%.
For the compound `CNc1ccc(C(=O)Nc2ccc(N(C)C)nn2)c(NC(=O)CN2CCN(c3ccc(Nc4ncc5c(C)c(C(C)=O)c(=O)n(C6CCCC6)c5n4)nc3)CC2)n1` [CPD-194, 2-(2-(4-(6-((6-acetyl-8-cyclopentyl-5-methyl-7-oxo-7,8-dihydropyrido[2,3-d]pyrimidin-2-yl)amino)pyridin-3-yl)piperazin-1-yl)acetamido)-N-(6-(dimethylamino)pyridazin-3-yl)-6-(methylamino)nicotinamide], the inhibition at 0.04 µM is below 30% and the inhibition at 0.2 µM is below 30%.
`CNc1ccc(C(=O)Nc2cn(C)c(C(C)C)n2)c(NC2CC3(CC(NC(=O)CN4CCN(c5ccc(Nc6ncc7c(C)c(C(C)=O)c(=O)n(C8CCCC8)c7n6)nc5)CC4)C3)C2)n1` (stereo not drawn) [CPD-195, 2-((6-(2-(4-(6-((6-acetyl-8-cyclopentyl-5-methyl-7-oxo-7,8-dihydropyrido[2,3-d]pyrimidin-2-yl)amino)pyridin-3-yl)piperazin-1-yl)acetamido)spiro[3.3]heptan-2-yl)amino)-N-(2-isopropyl-1-methyl-1H-imidazol-4-yl)-6-(methylamino)nicotinamide] yielded an inhibition at 0.04 µM below 30% and an inhibition at 0.2 µM of 50 to 80%.
In turn, `CNc1ccc(C(=O)Nc2cccc(C)n2)c(NC2CC(NC(=O)CN3CCN(c4ccc(Nc5ncc6c(C)c(C(C)=O)c(=O)n(C7CCCC7)c6n5)nc4)CC3)C2)n1` (stereo not drawn) [CPD-196, 2-((3-(2-(4-(6-((6-acetyl-8-cyclopentyl-5-methyl-7-oxo-7,8-dihydropyrido[2,3-d]pyrimidin-2-yl)amino)pyridin-3-yl)piperazin-1-yl)acetamido)cyclobutyl)amino)-6-(methylamino)-N-(6-methylpyridin-2-yl)nicotinamide] had an inhibition at 0.04 µM below 30% and an inhibition at 0.2 µM of 30 to 50%.
With `CNc1ccc(C(=O)Nc2cc(C)n(C)n2)c(NC2CC(NC(=O)CN3CCN(c4ccc(Nc5ncc6c(C)c(C(C)=O)c(=O)n(C7CCCC7)c6n5)nc4)CC3)C2)n1` (stereo not drawn) [CPD-197, 2-((3-(2-(4-(6-((6-acetyl-8-cyclopentyl-5-methyl-7-oxo-7,8-dihydropyrido[2,3-d]pyrimidin-2-yl)amino)pyridin-3-yl)piperazin-1-yl)acetamido)cyclobutyl)amino)-N-(1,5-dimethyl-1H-pyrazol-3-yl)-6-(methylamino)nicotinamide], the inhibition at 0.04 µM was below 30% and the inhibition at 0.2 µM lay within 30 to 50%.
